Experimental findings from patent US20030078251A1, “Benzoxazepinones and their use as squalene synthase inhibitors” (priority 2000, published 2003) are described below.

`COc1cccc([C@H]2O[C@H](CC(=O)Nc3cc4c(c(C(=O)O)c3)CCCC4)C(=O)N(CC(C)(C)CO)c3ccc(Cl)cc32)c1OC` [Example 112, 3-[[[(3R,5S)-7-Chloro-5-(2,3-dimethoxyphenyl)-1-(3-hydroxy-2,2-dimethylpropyl)-2-oxo-1,2,3,5-tetrahydro-4,1-benzoxazepin-3-yl]acetyl]amino]-5,6,7,8-tetrahydro-1-naphthoic acid] registered a melting point of 178 to 179 °C. With `COc1cccc([C@H]2O[C@H](CC(=O)Nc3ncc(CC(=O)O)s3)C(=O)N(CC(C)(C)CO)c3ccc(Cl)cc32)c1OC` [Example 143, [2-[[[(3R,5S)-7-Chloro-5-(2,3-dimethoxyphenyl)-1-(3-hydroxy-2,2-dimethylpropyl)-2-oxo-1,2,3,5-tetrahydro-4,1-benzoxazepin-3-yl]acetyl]amino]-1,3-thiazol-5-yl]acetic acid], the melting point lay within 239 to 241 °C.

In turn, `CCOc1ccc(CCC(=O)O)cc1NC(=O)C[C@H]1O[C@H](c2cccc(OC)c2OC)c2cc(Cl)ccc2N(CC(C)(C)COC(C)=O)C1=O` [Example 50, 3-[3-[[[(3R,5S)-1-(3-acetoxy-2,2-dimethylpropyl)-7-chloro-5-(2,3-dimethoxyphenyl)-2-oxo-1,2,3,5-tetrahydro-4,1-benzoxazepin-3-yl]acetyl]amino]-4-ethoxyphenyl]propionic Acid] gave a melting point of 175 to 176 °C. Molecule `COc1cccc([C@H]2O[C@H](CC(=O)N[C@H](CCSC)C(=O)O)C(=O)N(CC(C)(C)CO)c3ccc(Cl)cc32)c1OC` [Example 16, N-[[(3R,5S)-7-chloro-5-(2,3-dimethoxyphenyl)-1-(3-hydroxy-2,2-dimethylpropyl)-2-oxo-1,2,3,5-tetrahydro-4,1-benzoxazepin-3-yl]acetyl]-D-methionine] returned a melting point of 142 to 143 °C. `COc1ccc(CCCC(=O)O)cc1NC(=O)C[C@H]1O[C@H](c2cccc(OC)c2OC)c2cc(Cl)ccc2N(CC(C)(C)CO)C1=O` [Example 110, 4-[3-[[[(3R,5S)-7-Chloro-5-(2,3-dimethoxyphenyl)-1-(3-hydroxy-2,2-dimethylpropyl)-2-oxo-1,2,3,5-tetrahydro-4,1-benzoxazepin-3-yl]acetyl]amino]-4-methoxyphenyl]butanoic acid] yielded a melting point of 119 to 121 °C.

`COc1cccc([C@H]2O[C@H](CC(=O)NCCCOc3ccc(CC(=O)O)cc3)C(=O)N(CC(C)(C)COC(C)=O)c3ccc(Cl)cc32)c1OC` [Example 97, 4-[3-[[(3R,5S)-1-(3-Acetoxy-2,2-dimethylpropyl)-7-chloro-5-(2,3-dimethoxyphenyl)-2-oxo-1,2,3,5-tetrahydro-4,1-benzoxazepin-3-yl]acetyl]aminopropyloxy]phenylacetic acid]: the melting point lay in the range of 163 to 164 °C. The figure for `COc1cccc([C@H]2O[C@H](CC(=O)Nc3ccc(OCCCc4ccccc4)c(CCC(=O)O)c3)C(=O)N(CC(C)(C)CO)c3ccc(Cl)cc32)c1OC` [Example 124, 3-[5-[[[(3R,5S)-7-Chloro-5-(2,3-dimethoxyphenyl)-1-(3-hydroxy-2,2-dimethylpropyl)-2-oxo-1,2,3,5-tetrahydro-4,1-benzoxazepin-3-yl]acetyl]amino]-2-(3-phenylpropyloxy)phenyl]propionic Acid] is 147 to 149 °C; for `COc1cccc([C@H]2O[C@H](CC(=O)Nc3ccc(CCCC(=O)O)cc3)C(=O)N(CC(C)(C)CO)c3ccc(Cl)cc32)c1OC` [Example 68, 4-[4-[[[(3R,5S)-7-chloro-5-(2,3-dimethoxyphenyl)-1-(3-hydroxy-2,2-dimethylpropyl)-2-oxo-1,2,3,5-tetrahydro-4,1-benzoxazepin-3-yl]acetyl]amino]phenyl]butanoic acid] it is 194 to 195 °C. The same measure for `COc1cccc([C@H]2O[C@H](CC(=O)Nc3cccc(CCCC(=O)O)c3)C(=O)N(CC(C)(C)CO)c3ccc(Cl)cc32)c1OC` [Example 111, 4-[3-[[[(3R,5S)-7-Chloro-5-(2,3-dimethoxyphenyl)-1-(3-hydroxy-2,2-dimethylpropyl)-2-oxo-1,2,3,5-tetrahydro-4,1-benzoxazepin-3-yl]acetyl]amino]phenyl]butanoic acid]: 119 to 122 °C; for `COc1cccc([C@@H]2O[C@@H](CC(=O)Nc3cccc(CCC(=O)O)c3)C(=O)N(CC(C)(C)CO)c3ccc(Cl)cc32)c1OC` [Example 120, 3-[3-[[(3S,5R)-7-Chloro-5-(2,3-dimethoxyphenyl)-1-(3-hydroxy-2,2-dimethylpropyl)-2-oxo-1,2,3,5-tetrahydro-4,1-benzoxazepin-3-yl]acetyl]aminophenyl]propionic Acid]: 137 to 139 °C; for `COc1cccc([C@H]2O[C@H](CC(=O)Nc3nc(C(=O)O)cs3)C(=O)N(CC(C)(C)CO)c3ccc(Cl)cc32)c1OC` [Example 142, 2-[[[(3R,5S)-7-Chloro-5-(2,3-dimethoxyphenyl)-1-(3-hydroxy-2,2-dimethylpropyl)-2-oxo-1,2,3,5-tetrahydro-4,1-benzoxazepin-3-yl]acetyl]amino]-1,3-thiazole-4-carboxylic acid]: 277.3 to 277.9 °C.

Molecule `COc1cccc([C@H]2O[C@H](CC(=O)Nc3cc(Cl)cc4cc(C(=O)O)oc34)C(=O)N(CC(C)(C)CO)c3ccc(Cl)cc32)c1OC` [Example 165, 7-[[[(3R,5S)-7-Chloro-5-(2,3-dimethoxyphenyl)-1-(3-hydroxy-2,2-dimethylpropyl)-2-oxo-1,2,3,5-tetrahydro-5,1-benzoxazepin-3-yl]acetyl]amino]-5-chloro-1-benzofuran-2-carboxylic acid] had a melting point of 179.2 to 180.2 °C.

On to `COc1ccc(C(C)(C)CCC(=O)O)cc1NC(=O)C[C@H]1O[C@H](c2cccc(OC)c2OC)c2cc(Cl)ccc2N(CC(C)(C)CO)C1=O` [Example 138, 4-[3-[[2-[(3R,5S)-7-Chloro-5-(2,3-dimethoxyphenyl)-1-(3-hydroxy-2,2-dimethylpropyl)-2-oxo-1,2,3,5-tetrahydro-4,1-benzoxazepin-3-yl]acetyl]amino]-4-methoxyphenyl]-4,4-dimethylbutanoic acid], for which the melting point lay in the range of 173 to 174 °C.

Molecule `COc1cccc([C@H]2O[C@H](CC(=O)NCCCC(=O)O)C(=O)N(CC(C)(C)C)c3ccc(Cl)cc32)c1OC` [Example 70, 4-[[(3R,5S)-7-chloro-5-(2,3-dimethoxyphenyl)-1-neopentyl-2-oxo-1,2,3,5-tetrahydro-4,1-benzoxazepin-3-yl]acetyl]aminobutanoic acid] returned a melting point of 128 to 130 °C. `COc1cccc([C@H]2O[C@H](CC(=O)Nc3ccc(C(=O)O)o3)C(=O)N(CC(C)(C)CO)c3ccc(Cl)cc32)c1OC` [Example 94, 5-[[(3R,5S)-7-Chloro-5-(2,3-dimethoxyphenyl)-1-(3-hydroxy-2,2-dimethylpropyl)-2-oxo-1,2,3,5-tetrahydro-4,1-benzoxazepin-3-yl]acetyl]amino-2-furancarboxylic acid] yielded a melting point of 155 to 158 °C. For the molecule `CCCc1cc(NC(=O)C[C@H]2O[C@H](c3cccc(OC)c3OC)c3cc(Cl)ccc3N(CC(C)(C)CO)C2=O)cc2cc(C(=O)O)oc12` [Example 163, 5-[[[(3R,5S)-7-Chloro-5-(2,3-dimethoxyphenyl)-1-(3-hydroxy-2,2-dimethylpropyl)-2-oxo-1,2,3,5-tetrahydro-4,1-benzoxazepin-3-yl]acetyl]amino]-7-propyl-1-benzofuran-2-carboxylic acid], the melting point is 198.5 to 199.5 °C.

Take `COc1cccc([C@H]2O[C@H](CC(=O)Nc3ccc(OCC(=O)O)cc3F)C(=O)N(CC(C)(C)CO)c3ccc(Cl)cc32)c1OC` [Example 136]: the melting point is 192 to 193 °C (dec.). The figure for `COc1cccc([C@H]2O[C@H](CC(=O)Nc3ccc(CC(=O)O)cc3)C(=O)N(CC(C)(C)CO)c3ccc(Cl)cc32)c1OC` [Example 31, 4-[[(3R,5S)-7-chloro-5-(2,3-dimethoxyphenyl)-1-(3-hydroxy-2,2-dimethylpropyl)-2-oxo-1,2,3,5-tetrahydro-4,1-benzoxazepin-3-yl]acetyl]aminophenylacetic acid] is 142 to 144 °C; for `COc1ccc(CCCCC(=O)O)cc1NC(=O)C[C@H]1O[C@H](c2cccc(OC)c2OC)c2cc(Cl)ccc2N(CC(C)(C)CO)C1=O` [Example 139, 5-[3-[[2-[(3R,5S)-7-Chloro-5-(2,3-dimethoxyphenyl)-1-(3-hydroxy-2,2-dimethylpropyl)-2-oxo-1,2,3,5-tetrahydro-4,1-benzoxazepin-3-yl]acetyl]amino]-4-methoxyphenyl]pentanoic acid] it is 136 to 138 °C. The same measure for `COc1cccc([C@H]2O[C@H](CC(=O)Nc3ccc4oc(C(=O)O)c(OC(C)C)c4c3)C(=O)N(CC(C)(C)CO)c3ccc(Cl)cc32)c1OC` [Example 156, 5-[[[(3R,5S)-7-chloro-5-(2,3-dimethoxyphenyl)-1-(3-hydroxy-2,2-dimethylpropyl)-2-oxo-1,2,3,5-tetrahydro-4,1-benzoxazepin-3-yl]acetyl]amino]-3-[(1-methylethyl)oxy]-1-benzofuran-2-carboxylic acid]: 174.2 to 174.9 °C. The figure for `COc1cccc([C@H]2O[C@H](CC(=O)Nc3cc(CCCCC(=O)O)ccc3F)C(=O)N(CC(C)(C)CO)c3ccc(Cl)cc32)c1OC` [Example 108, 5-[3-[[[(3R,5S)-7-Chloro-5-(2,3-dimethoxyphenyl)-1-(3-hydroxy-2,2-dimethylpropyl)-2-oxo-1,2,3,5-tetrahydro-4,1-benzoxazepin-3-yl]acetyl]amino]-4-fluorophenyl]pentanoic acid] is 115 to 118 °C; for `COc1cccc([C@H]2O[C@H](CC(=O)Nc3ccc4[nH]c(C(=O)O)cc4c3)C(=O)N(CC(C)(C)CO)c3ccc(Cl)cc32)c1OC` [Example 157] it is 200.5 to 200.6 °C; for `COc1cccc([C@H]2O[C@H](CC(=O)Nc3ccc(OC(F)(F)C(=O)O)cc3)C(=O)N(CC(C)(C)CO)c3ccc(Cl)cc32)c1OC` [Example 132, 2-[4-[[[(3R,5S)-7-Chloro-5-(2,3-dimethoxyphenyl)-1-(3-hydroxy-2,2-dimethylpropyl)-2-oxo-1,2,3,5-tetrahydro-4,1-benzoxazepin-3-yl]acetyl]amino]phenyloxy]-2,2-difluoroacetic acid] it is 149 to 150 °C.
